Experimental data: patent publication US20250186435A1, “PHARMACEUTICAL FORMULATIONS AND THEIR PREPARATIONS FOR TREATMENT OF CANCER” (priority 2020, published 2025)

Legend:
[1] = Moisture and thermal sensitivity of CLX-155; type: physicochemical
From the text: Dry granulation is also referred as pre-compression or double compression and is an agglomeration process designed to improve the flow and compression characteristics of powders that would otherwise have poor flow &/or compressibility. The process involves compaction of powder particles into larger pieces or compacts which are subsequently broken down into granules that can be further processed into dosage forms. Dry granulation is suitable for the compound which is sensitive to moisture and temperature.

[2] = Solubility of API CLX-155 in organic solvents; type: physicochemical

## CCCCCCCC(=O)Nc1nc(=O)n([C@@H]2O[C@H](C)[C@@H](OC(C)=O)[C@H]2OC(C)=O)cc1F [CLX-155, (2R, 3R, 4R, 5R)-2-(5-Fluoro-4-octanamido 2-oxopyrimidine-1(2H)-yl)-5-methyl-tetrahydrofuran-3,4-diyl-diacetate]
[1]
  Stability towards moisture: moisture sensitive
  Thermal stability: thermolabile
[2]; in Acetonitrile
  Solubility: Slightly Soluble
[2]; in Methanol
  Solubility: Freely soluble
